Measurements published in patent US9302999B2, “Substituted triazoles as herbicides” (E. I. DU PONT DE NEMOURS AND COMPANY, priority 2012, dated 2016).

How the values were obtained:
Assay type in all cases: in vivo
[1] = test system: barnyardgrass (Echinochloa crus-galli); assay: Test A pre-/postemergence: barnyardgrass
Summary of the method: (§1)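 Visual 0–100 injury ratings (0 no effect, 100 complete control) taken about ten days after treatment, relative to untreated controls. Preemergence treatment was a directed soil spray; postemergence plants were 2–10 cm tall at one- to two-leaf stage. Soil: loam/sand blend.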

[2] = test system: crabgrass, large (large crabgrass, Digitaria sanguinalis); assay: Test A pre-/postemergence: crabgrass, large
Summary of the method: as §1

[3] = test system: foxtail, giant (giant foxtail, Setaria faberii); assay: Test A pre-/postemergence: foxtail, giant
Summary of the method: as §1

[4] = test system: morningglory (Ipomoea spp.); assay: Test A pre-/postemergence: morningglory
Summary of the method: as §1

[5] = test system: pigweed (Amaranthus retroflexus); assay: Test A pre-/postemergence: pigweed
Summary of the method: as §1

[6] = test system: velvetleaf (Abutilon theophrasti); assay: Test A pre-/postemergence: velvetleaf
Summary of the method: as §1

[7] = test system: wheat (Triticum aestivum); assay: Test A pre-/postemergence: wheat
Summary of the method: as §1

corn (Zea mays) = assay: Test A pre-/postemergence: corn
Summary of the method: as §1

rice (Oryza sativa) = assay: Test B flooded paddy: rice; conditions: Flood, applied to paddy water at 2-leaf stage, visually evaluated after 13 to 15 days
Summary of the method: (§2)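 Two-leaf-stage plants, pots flooded (3 cm above soil) and treated through the water, which stayed at that depth. After 13–15 days in greenhouse conditions, visual assessment versus controls: 0 is no effect, 100 complete control, dash means no result.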

[8] = test system: sedge, umbrella (small-flower umbrella sedge Cyperus difformis); assay: Test B flooded paddy: sedge, umbrella; conditions: Flood, applied to paddy water at 2-leaf stage, visually evaluated after 13 to 15 days
Summary of the method: as §2

[9] = test system: ducksalad (Heteranthera limosa); assay: Test B flooded paddy: ducksalad; conditions: Flood, applied to paddy water at 2-leaf stage, visually evaluated after 13 to 15 days
Summary of the method: as §2

[10] = test system: barnyardgrass (Echinochloa crus-galli); assay: Test B flooded paddy: barnyardgrass; conditions: Flood, applied to paddy water at 2-leaf stage, visually evaluated after 13 to 15 days
Summary of the method: as §2

[11] = Postemergence, 125 g ai/ha, 0 to 100 scale, 0 is no effect, 100 is complete control
[12] = Postemergence, 500 g ai/ha, 0 to 100 scale, 0 is no effect, 100 is complete control
[13] = Preemergence, 125 g ai/ha, 0 to 100 scale where 0 is no effect and 100 is complete control
[14] = Preemergence, 500 g ai/ha, 0 to 100 scale (0 no effect, 100 complete control)

## CC(C)Oc1nn(-c2ccc(C(F)(F)F)cc2)nc1Cc1ccnc(C(F)(F)F)c1 [Compound 192]
[1]; [11]
  Plant response rating, Barnyardgrass: 0
[1]; [12]
  Barnyardgrass plant response rating: 20
[1]; [13]
  Plant response rating, Barnyardgrass: 0
[1]; [14]
  Plant response rating, Barnyardgrass: 0
[2]; [11]
  Plant response rating, Crabgrass, Large: 10
[2]; [12]
  Crabgrass, Large plant response rating: 30
[2]; [13]
  Plant response rating, Crabgrass, Large: 0
[2]; [14]
  Plant response rating, Crabgrass, Large: 70
[3]; [11]
  Plant response rating, Foxtail, Giant: 10
[3]; [12]
  Foxtail, Giant plant response rating: 20
[3]; [13]
  Plant response rating, Foxtail, Giant: 0
[3]; [14]
  Plant response rating, Foxtail, Giant: 80
[4]; [11]
  Plant response rating, Morningglory: 30
[4]; [12]
  Morningglory plant response rating: 70
[4]; [13]
  Plant response rating, Morningglory: 0
[4]; [14]
  Plant response rating, Morningglory: 10
[5]; [11]
  Plant response rating, Pigweed: 40
[5]; [12]
  Pigweed plant response rating: 100
[5]; [13]
  Plant response rating, Pigweed: 10
[5]; [14]
  Plant response rating, Pigweed: 40
[6]; [11]
  Plant response rating, Velvetleaf: 20
[6]; [12]
  Velvetleaf plant response rating: 100
[6]; [13]
  Plant response rating, Velvetleaf: 0
[6]; [14]
  Plant response rating, Velvetleaf: 0
[7]; [11]
  Plant response rating, Wheat: 0
[7]; [12]
  Wheat plant response rating: 10
[7]; [13]
  Plant response rating, Wheat: 0
[7]; [14]
  Plant response rating, Wheat: 0
Corn (Zea mays); [11]
  Plant response rating, Corn: 10
Corn (Zea mays); [12]
  Corn plant response rating: 30
Corn (Zea mays); [13]
  Plant response rating, Corn: 0
Corn (Zea mays); [14]
  Plant response rating, Corn: 0
Rice (Oryza sativa); 250 g ai/ha
  Plant response rating, Rice (0 to 100 scale, 0 is no effect, 100 is complete control): 0
[8]; 250 g ai/ha
  Plant response rating, Sedge, Umbrella (0 to 100 scale, 0 is no effect, 100 is complete control): 0
[9]; 250 g ai/ha
  Plant response rating, Ducksalad (0 to 100 scale, 0 is no effect, 100 is complete control): 0
[10]; 250 g ai/ha
  Plant response rating, Barnyardgrass (0 to 100 scale, 0 is no effect, 100 is complete control): 0

## CC(C)COc1nn(-c2ccc(C(F)(F)F)cc2)nc1Cc1ccnc(C(F)(F)F)c1 [Compound 193]
[1]; [11]
  Plant response rating, Barnyardgrass: 10
[1]; [12]
  Barnyardgrass plant response rating: 20
[1]; [13]
  Plant response rating, Barnyardgrass: 0
[1]; [14]
  Plant response rating, Barnyardgrass: 0
[2]; [11]
  Plant response rating, Crabgrass, Large: 10
[2]; [12]
  Crabgrass, Large plant response rating: 30
[2]; [13]
  Plant response rating, Crabgrass, Large: 0
[2]; [14]
  Plant response rating, Crabgrass, Large: 40
[3]; [11]
  Plant response rating, Foxtail, Giant: 10
[3]; [12]
  Foxtail, Giant plant response rating: 20
[3]; [13]
  Plant response rating, Foxtail, Giant: 10
[3]; [14]
  Plant response rating, Foxtail, Giant: 70
[4]; [11]
  Plant response rating, Morningglory: 10
[4]; [12]
  Morningglory plant response rating: 40
[4]; [13]
  Plant response rating, Morningglory: 0
[4]; [14]
  Plant response rating, Morningglory: 0
[5]; [11]
  Plant response rating, Pigweed: 70
[5]; [12]
  Pigweed plant response rating: 100
[5]; [13]
  Plant response rating, Pigweed: 0
[5]; [14]
  Plant response rating, Pigweed: 20
[6]; [11]
  Plant response rating, Velvetleaf: 30
[6]; [12]
  Velvetleaf plant response rating: 70
[6]; [13]
  Plant response rating, Velvetleaf: 0
[6]; [14]
  Plant response rating, Velvetleaf: 0
[7]; [11]
  Plant response rating, Wheat: 0
[7]; [12]
  Wheat plant response rating: 10
[7]; [13]
  Plant response rating, Wheat: 0
[7]; [14]
  Plant response rating, Wheat: 0
Corn (Zea mays); [11]
  Plant response rating, Corn: 10
Corn (Zea mays); [12]
  Corn plant response rating: 30
Corn (Zea mays); [13]
  Plant response rating, Corn: 0
Corn (Zea mays); [14]
  Plant response rating, Corn: 0
Rice (Oryza sativa); 125 g ai/ha
  Plant response rating, Rice (0 to 100 scale, 0 is no effect, 100 is complete control): 0
[8]; 125 g ai/ha
  Plant response rating, Sedge, Umbrella (0 to 100 scale, 0 is no effect, 100 is complete control): 0
[9]; 125 g ai/ha
  Plant response rating, Ducksalad (0 to 100 scale, 0 is no effect, 100 is complete control): 0
[10]; 125 g ai/ha
  Plant response rating, Barnyardgrass (0 to 100 scale, 0 is no effect, 100 is complete control): 0
